Results as given in patent US9247759B2, “Identification of human T2R receptors that respond to bitter compounds that elicit the bitter taste in compositions, and the use thereof in assays to identify compounds that inhibit (block) bitter taste in compositions and use thereof” (SENOMYX, INC., priority 2007, dated 2016).
Like-named read-outs stand apart in the source and are kept apart here.

Legend:
hT2R3 = hT2R3 (Homo sapiens (Human), UniProt Q9NYW6); test: hT2R panel inhibition, transient HEK293 G16g44, agonist Chloroquine pH6.5 50 μM; type: cell-based; conditions: HEK293, compound at 25 μM; receptor activated to EC80 with the corresponding agonist; read-out: screening result against bitter receptor 3
Experimental: (§1) Specifically, in order to evaluate the inhibitory selectivity of the Compound C compound, this compound was tested against 22 human T2Rs which were deorphaned by Senomyx. These receptors and the bitter ligands that activate these human T2Rs are reported in earlier patent applications which are incorporated by reference herein. These 22 human T2Rs are hT2R1, 3, 4, 5, 7, 8, 9, 10, 13, 14, 16, 44, 51, 54, 55, 61, 63, 64, 65, 67, 71 and 75. The amino acid and nucleic acid sequences of all of these T2Rs may be found in these earlier patent applications. These human T2Rs were each individually transiently transfected into HEK293 cells that stably express the promiscuous G protein G16g44 and functional assays were effected using these receptors as disclosed in these same patent applications. […] The ligands were used at EC80 concentration levels. The list of bitter ligands utilized and the tested ligand concentrations are contained in Table 5 of this example.
(§2) Relating to the foregoing, FIG. 5 contains experimental results wherein Compound C was tested with different agonist compounds. The inhibition activity is represented by the reduction of receptor activity in the presence of Compound C. […] These 13 hT2Rs are hT2R3, 7, 10, 14, 16, 44, 51, 55, 61, 63, 64, 65, and 71.

hT2R67 = test: hT2R panel inhibition, transient HEK293 G16g44, agonist Andrographolide 5 μM; type: cell-based, human; conditions: compound at 25 μM; receptor activated to EC80 with the corresponding agonist
Experimental: as §1, §2

hT2R14 [1] = target: T1, hT2R14 (Homo sapiens (Human), UniProt Q9NYV8); test: hT2R panel inhibition, transient HEK293 G16g44, agonist Aristolochic Acid 2 μM; type: cell-based; conditions: HEK293, compound at 25 μM
Experimental: as §1

hT2R63 = test: hT2R panel inhibition, transient HEK293 G16g44, agonist Caffeine 1 mM or Andrographolide 100 μM; type: cell-based, human; conditions: compound at 25 μM; for screening result against bitter receptor 63: receptor activated to EC80 with the corresponding agonist
Experimental: as §1, §2

hT2R71 = hT2R71 (Homo sapiens (Human), UniProt P59536); test: hT2R panel inhibition, transient HEK293 G16g44, agonist Picric Acid 10 μM; type: cell-based; conditions: HEK293, compound at 25 μM
Experimental: as §1, §2

hT2R14 [2] = target: T1, hT2R14; test: hT2R14 antagonist high-throughput FLIPR assay, stable cell line with G16g44, agonist aristolochic acid; type: cell-based
How it was run: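 Compounds were co-applied with 3 μM aristolochic acid, a dose set to reach 70-80% of maximal hT2R14 activation. Read-out was FLIPR fluorescence in a stable HEK293 line co-expressing hT2R14 and G16g44.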

hT2R44 = test: hT2R panel inhibition, transient HEK293 G16g44, agonist Denatonium 0.5 μM; type: cell-based, human; conditions: compound at 25 μM; for screening result against bitter receptor 44: receptor activated to EC80 with the corresponding agonist
Experimental: as §1, §2

hT2R65 = test: hT2R panel inhibition, transient HEK293 G16g44, agonist Oleuropein 1 mM; type: cell-based, human; conditions: compound at 25 μM; for screening result against bitter receptor 65: receptor activated to EC80 with the corresponding agonist
Experimental: as §1, §2

hT2R61 = hT2R61 (Homo sapiens (Human), UniProt P59537); test: hT2R panel inhibition, transient HEK293 G16g44, agonist Aristolochic Acid 25 nM; type: cell-based; conditions: HEK293, compound at 25 μM
Experimental: as §1, §2

hT2R64 = hT2R64 (Homo sapiens (Human), UniProt P59538); test: hT2R panel inhibition, transient HEK293 G16g44, agonist Aristolochic Acid 1 μM; type: cell-based; conditions: HEK293, compound at 25 μM; receptor activated to EC80 with the corresponding agonist; read-out: screening result against bitter receptor 64
Experimental: as §1, §2

hT2R55 = test: hT2R panel inhibition, transient HEK293 G16g44, agonist Cinchonine 150 μM; type: cell-based, human; conditions: compound at 25 μM; for screening result against bitter receptor 55: receptor activated to EC80 with the corresponding agonist
Experimental: as §1, §2

hT2R54 = test: hT2R panel inhibition, transient HEK293 G16g44, agonist Ranitidine 5 mM; type: cell-based, human; conditions: compound at 25 μM
Experimental: as §1, §2

hT2R5 = hT2R5 (Homo sapiens (Human), UniProt Q9NYW4); test: hT2R panel inhibition, transient HEK293 G16g44, agonist Picoline 10 mM; type: cell-based; conditions: HEK293, compound at 25 μM; receptor activated to EC80 with the corresponding agonist; read-out: screening result against bitter receptor 5
Experimental: as §1, §2

hT2R16 = hT2R16 (Homo sapiens (Human), UniProt Q9NYV7); test: hT2R panel inhibition, transient HEK293 G16g44, agonist Salicin 1 mM; type: cell-based; conditions: HEK293, compound at 25 μM; receptor activated to EC80 with the corresponding agonist; read-out: screening result against bitter receptor 16
Experimental: as §1, §2

hT2R10 = hT2R10 (Homo sapiens (Human), UniProt Q9NYW0); test: hT2R panel inhibition, transient HEK293 G16g44, agonist Strychnine 50 μM; type: cell-based; conditions: HEK293, read-out: screening result against bitter receptor 10, compound at 25 μM; receptor activated to EC80 with the corresponding agonist
Experimental: as §1, §2

hT2R7 = hT2R7 (Homo sapiens (Human), UniProt Q9NYW3); test: hT2R panel inhibition, transient HEK293 G16g44, agonist Chloroquine pH6.5 10 mM; type: cell-based; conditions: HEK293, compound at 25 μM; receptor activated to EC80 with the corresponding agonist; read-out: screening result against bitter receptor 7
Experimental: as §1, §2

[3] = receptor activated to EC80 with agonist, read-out: inhibition of bitter receptor 14
[4] = receptor activated to EC80 with agonist
[5] = receptor activated to EC80 with the corresponding agonist, read-out: screening result against bitter receptor 61
[6] = receptor activated to EC80 with the corresponding agonist, read-out: screening result against bitter receptor 14
[7] = receptor activated to EC80 with the corresponding agonist, read-out: screening result against bitter receptor 71

Chain of hT2R16 (Q9NYV7 whole entry): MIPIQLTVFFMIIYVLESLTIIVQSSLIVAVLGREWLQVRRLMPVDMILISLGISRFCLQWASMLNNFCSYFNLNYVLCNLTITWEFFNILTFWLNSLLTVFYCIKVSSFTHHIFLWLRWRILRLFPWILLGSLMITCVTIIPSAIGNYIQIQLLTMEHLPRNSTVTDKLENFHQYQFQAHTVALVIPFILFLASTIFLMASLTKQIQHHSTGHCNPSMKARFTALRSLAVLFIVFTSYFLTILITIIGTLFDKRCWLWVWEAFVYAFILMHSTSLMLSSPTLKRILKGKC
Chain of hT2R7 (Q9NYW3 whole entry): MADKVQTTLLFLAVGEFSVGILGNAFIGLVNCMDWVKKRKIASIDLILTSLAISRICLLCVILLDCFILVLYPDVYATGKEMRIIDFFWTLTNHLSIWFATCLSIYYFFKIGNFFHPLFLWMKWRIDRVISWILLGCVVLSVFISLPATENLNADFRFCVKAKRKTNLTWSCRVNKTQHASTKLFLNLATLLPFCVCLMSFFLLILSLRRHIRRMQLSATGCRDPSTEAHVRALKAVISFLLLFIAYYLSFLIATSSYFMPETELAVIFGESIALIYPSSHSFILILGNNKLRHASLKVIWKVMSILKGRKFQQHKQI
Chain of hT2R5 (Q9NYW4 whole entry): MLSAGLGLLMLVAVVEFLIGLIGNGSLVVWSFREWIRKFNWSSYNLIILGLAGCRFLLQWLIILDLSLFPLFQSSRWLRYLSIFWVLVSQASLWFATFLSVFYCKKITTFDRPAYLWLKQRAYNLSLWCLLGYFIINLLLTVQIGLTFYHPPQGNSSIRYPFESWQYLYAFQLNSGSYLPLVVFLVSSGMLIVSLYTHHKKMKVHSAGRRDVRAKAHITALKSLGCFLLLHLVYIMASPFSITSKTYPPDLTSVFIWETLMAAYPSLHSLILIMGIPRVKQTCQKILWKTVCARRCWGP
Chain of hT2R3 (Q9NYW6 whole entry): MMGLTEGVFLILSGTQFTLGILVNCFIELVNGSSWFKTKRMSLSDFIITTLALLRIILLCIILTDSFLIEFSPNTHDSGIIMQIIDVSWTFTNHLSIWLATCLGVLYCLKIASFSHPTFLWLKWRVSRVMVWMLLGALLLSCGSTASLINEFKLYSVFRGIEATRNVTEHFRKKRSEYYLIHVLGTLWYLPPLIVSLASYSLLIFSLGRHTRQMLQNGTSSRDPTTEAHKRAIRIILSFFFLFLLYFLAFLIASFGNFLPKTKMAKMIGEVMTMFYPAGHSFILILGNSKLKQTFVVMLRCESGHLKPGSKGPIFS
Chain of hT2R71 (P59536 whole entry): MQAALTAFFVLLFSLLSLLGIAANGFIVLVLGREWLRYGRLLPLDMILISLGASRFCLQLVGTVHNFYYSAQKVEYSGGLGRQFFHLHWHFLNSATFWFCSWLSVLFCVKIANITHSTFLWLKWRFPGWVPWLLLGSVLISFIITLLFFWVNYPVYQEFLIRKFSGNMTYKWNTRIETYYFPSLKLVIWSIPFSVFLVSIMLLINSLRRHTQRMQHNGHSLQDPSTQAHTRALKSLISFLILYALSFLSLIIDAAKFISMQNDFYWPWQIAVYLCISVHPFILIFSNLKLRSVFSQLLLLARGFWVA
T1 sequence (Q9NYV8 whole entry): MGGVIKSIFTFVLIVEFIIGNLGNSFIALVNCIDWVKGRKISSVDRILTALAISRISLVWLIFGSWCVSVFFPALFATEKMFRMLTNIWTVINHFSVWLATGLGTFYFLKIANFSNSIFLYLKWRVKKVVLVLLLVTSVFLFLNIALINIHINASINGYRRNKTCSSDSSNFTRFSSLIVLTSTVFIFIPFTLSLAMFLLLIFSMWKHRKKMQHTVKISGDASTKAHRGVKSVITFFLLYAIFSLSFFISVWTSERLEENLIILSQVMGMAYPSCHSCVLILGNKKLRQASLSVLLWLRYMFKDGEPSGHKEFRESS
Chain of hT2R61 (P59537 whole entry): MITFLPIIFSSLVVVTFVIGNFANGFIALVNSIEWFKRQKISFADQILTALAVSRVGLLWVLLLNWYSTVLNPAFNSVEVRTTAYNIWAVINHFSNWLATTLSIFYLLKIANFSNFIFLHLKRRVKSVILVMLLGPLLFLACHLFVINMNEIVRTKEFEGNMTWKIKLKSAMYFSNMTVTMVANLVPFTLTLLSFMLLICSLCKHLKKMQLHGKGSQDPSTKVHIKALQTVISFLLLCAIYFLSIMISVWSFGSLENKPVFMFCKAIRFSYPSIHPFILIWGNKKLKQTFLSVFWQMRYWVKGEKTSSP
Chain of hT2R64 (P59538 whole entry): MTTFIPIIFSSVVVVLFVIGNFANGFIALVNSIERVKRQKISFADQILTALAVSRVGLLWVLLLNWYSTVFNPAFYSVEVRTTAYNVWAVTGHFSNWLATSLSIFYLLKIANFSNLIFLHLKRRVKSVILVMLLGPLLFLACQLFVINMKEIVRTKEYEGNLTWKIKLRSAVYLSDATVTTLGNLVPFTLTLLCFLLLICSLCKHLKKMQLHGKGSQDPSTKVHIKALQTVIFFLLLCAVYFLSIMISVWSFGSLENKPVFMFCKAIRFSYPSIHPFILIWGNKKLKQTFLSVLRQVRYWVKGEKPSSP
Chain of hT2R10 (Q9NYW0 whole entry): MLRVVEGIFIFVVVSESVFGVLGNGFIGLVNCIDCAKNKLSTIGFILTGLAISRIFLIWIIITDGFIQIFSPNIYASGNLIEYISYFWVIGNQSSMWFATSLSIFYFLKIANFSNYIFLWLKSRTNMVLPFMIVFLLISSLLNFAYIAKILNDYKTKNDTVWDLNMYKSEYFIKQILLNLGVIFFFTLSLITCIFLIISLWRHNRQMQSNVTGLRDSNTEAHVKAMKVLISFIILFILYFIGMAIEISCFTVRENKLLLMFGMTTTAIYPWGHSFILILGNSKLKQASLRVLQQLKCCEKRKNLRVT

| SMILES | inhibition at 25 µM (hT2R3) [%] | screening result against bitter receptor 67 (hT2R67) | inhibition at 25 µM (hT2R64) [%] | screening result against bitter receptor 63 (hT2R63) | inhibition at 25 µM (hT2R61; [5]) [%] | inhibition at 25 µM (hT2R5) [%] | inhibition at 25 µM (hT2R14 [1]; [6]) [%] | screening result against bitter receptor 55 (hT2R55) | inhibition at 25 µM (hT2R71; [7]) [%] | inhibition at 25 µM (hT2R16) [%] | screening result against bitter receptor 44 (hT2R44) | inhibition at 25 µM (hT2R7) [%] | further results |
| --- | --- | --- | --- | --- | --- | --- | --- | --- | --- | --- | --- | --- | --- |
| O=C(O)c1ccc(S(=O)(=O)NCc2ccco2)cc1 [Example 5-54, 4-(N-(furan-2-ylmethyl)sulfamoyl)benzoic acid] | 20 to 40 | + (20% to 40% inhibition = +) |  |  |  |  |  |  |  |  |  |  |  |
| Cn1c(=O)c2cc(S(=O)(=O)Nc3ccc4c(c3)OCO4)ccc2n(C)c1=O [Example 6-5, N-(benzo[d][1,3]dioxol-5-yl)-1,3-dimethyl-2,4-dioxo-1,2,3,4-tetrahydroquinazoline-6-sulfonamide] |  |  |  |  |  |  |  |  |  |  |  |  | inhibition at 25 µM (hT2R14 [1]; [3]): > 80%; inhibition of bitter receptor 63 (hT2R63; [4]): ++++ (80% or greater inhibition = ++++); inhibition at 25 µM (hT2R71; receptor activated to EC80 with agonist, read-out: inhibition of bitter receptor 71): 60 to 80%; IC50 (hT2R14 [2]; Table D, read-out: hT2R14 IC50): 264 nM; inhibition of bitter receptor 44 (hT2R44; [4]): ++ (40% to 60% inhibition = ++); inhibition of bitter receptor 65 (hT2R65; [4]): ++ (40% to 60% inhibition = ++); inhibition at 25 µM (hT2R61; receptor activated to EC80 with agonist, read-out: inhibition of bitter receptor 61): 20 to 40% |
| COc1ccc(CN(Cc2ccccn2)S(=O)(=O)c2ccc(C(=O)O)cc2)cc1 [Example 5-87, 4-(N-(4-methoxybenzyl)-N-(pyridin-2-ylmethyl)sulfamoyl)benzoic acid] |  | + (20% to 40% inhibition = +) | 20 to 40 | + (20% to 40% inhibition = +) | 40 to 60 |  |  |  |  |  |  |  |  |
| Cn1c(=O)c2cc(S(=O)(=O)Nc3ccc4c(c3)OCCO4)ccc2n(C)c1=O [Example 6-6, N-(2,3-dihydrobenzo[b][1,4]dioxin-6-yl)-1,3-dimethyl-2,4-dioxo-1,2,3,4-tetrahydroquinazoline-6-sulfonamide] |  |  |  |  |  |  |  |  |  |  |  |  | inhibition at 25 µM (hT2R14 [1]; [3]): > 80%; screening result against bitter receptor 55, printed as a number (meaning not defined) (hT2R55; receptor activated to EC80 with agonist, numeric cell): 210; inhibition of bitter receptor 54 (hT2R54; [4]): + (20% to 40% inhibition = +); IC50 (hT2R14 [2]; Table D, read-out: hT2R14 IC50): 706 nM |
| N#Cc1ccccc1CN(Cc1ccccc1)S(=O)(=O)c1ccc(C(=O)O)cc1 [Example 5-92, 4-(N-benzyl-N-(2-cyanobenzyl)sulfamoyl)benzoic acid] | 20 to 40 |  | > 80 | ++++ (80% or greater inhibition = ++++) | > 80 | 20 to 40 | > 80 | ++++ (80% or greater inhibition = ++++) | 40 to 60 | 20 to 40 | ++++ (80% or greater inhibition = ++++) | 20 to 40 | inhibition at 25 µM (hT2R10): 20 to 40% |
| COc1ccc(N(Cc2ccccc2)S(=O)(=O)c2ccc(C(=O)O)cc2)cc1 [Example 5-35, 4-(N-benzyl-N-(4-methoxyphenyl)sulfamoyl)benzoic acid] | 20 to 40 |  | 20 to 40 | +++ (60% to 80% inhibition = +++) | > 80 | 20 to 40 | 20 to 40 | +++ (60% to 80% inhibition = +++) | 40 to 60 | 20 to 40 | + (20% to 40% inhibition = +) | 20 to 40 | screening result against bitter receptor 54 (hT2R54; receptor activated to EC80 with the corresponding agonist): + (20% to 40% inhibition = +) |
| COc1ccc(CN(Cc2ccccc2)S(=O)(=O)c2ccc(C(=O)O)cc2)cn1 [Example 5-90, 4-(N-benzyl-N-((6-methoxypyridin-3-yl)methyl)sulfamoyl)benzoic acid] | 40 to 60 |  | 60 to 80 | ++++ (80% or greater inhibition = ++++) | > 80 | 20 to 40 | > 80 | +++ (60% to 80% inhibition = +++) | 60 to 80 | 20 to 40 | +++ (60% to 80% inhibition = +++) | 60 to 80 | inhibition at 25 µM (hT2R10): 40 to 60%; screening result against bitter receptor 65 (hT2R65): ++ (40% to 60% inhibition = ++) |
| O=C(O)c1ccc(S(=O)(=O)N(Cc2ccccc2)Cc2ccc(O)cc2)cc1 [Example 5-99, 4-(N-benzyl-N-(4-hydroxybenzyl)sulfamoyl)benzoic acid] |  | ++ (40% to 60% inhibition = ++) | 60 to 80 | ++++ (80% or greater inhibition = ++++) | > 80 |  | > 80 | + (20% to 40% inhibition = +) | 60 to 80 | 20 to 40 | +++ (60% to 80% inhibition = +++) | 20 to 40 | IC50 (hT2R14 [2]; Table C, read-out: hT2R14 IC50): 5210 nM; screening result against bitter receptor 65 (hT2R65): ++ (40% to 60% inhibition = ++) |
| COc1ccc(CN(Cc2cccnc2)S(=O)(=O)c2ccc(C(=O)O)cc2)cc1 [Example 5-88, 4-(N-(4-methoxybenzyl)-N-(pyridin-3-ylmethyl)sulfamoyl)benzoic acid] | 20 to 40 | + (20% to 40% inhibition = +) | 20 to 40 | +++ (60% to 80% inhibition = +++) | 40 to 60 |  | 20 to 40 |  | 20 to 40 |  | + (20% to 40% inhibition = +) |  |  |
| COc1ccc(CN(Cc2ccccc2)S(=O)(=O)c2ccc(-c3nn[nH]n3)cc2)cc1 [Example 5-46, N-benzyl-N-(4-methoxybenzyl)-4-(1H-tetrazol-5-yl)benzene-sulfonamide] | 20 to 40 | ++ (40% to 60% inhibition = ++) |  | +++ (60% to 80% inhibition = +++) | > 80 |  | > 80 | + (20% to 40% inhibition = +) | 60 to 80 | 20 to 40 | ++ (40% to 60% inhibition = ++) | 20 to 40 | IC50 (hT2R14 [2]; read-out: IC50 on hT2R14 bitter receptor): 3670 nM; screening result against bitter receptor 65 (hT2R65): ++ (40% to 60% inhibition = ++) |
| COc1ccc(CN(Cc2ccc(C)o2)S(=O)(=O)c2ccc(C(=O)O)cc2)cc1 [Example 5-63, 4-(N-(4-methoxybenzyl)-N-((5-methylfuran-2-yl)methyl)sulfamoyl)benzoic acid] | 20 to 40 | + (20% to 40% inhibition = +) | 40 to 60 | +++ (60% to 80% inhibition = +++) |  | 20 to 40 |  | +++ (60% to 80% inhibition = +++) | 20 to 40 |  |  |  |  |
